Measurements reported in article PMC6591251, “Discovery of potent necroptosis inhibitors targeting RIPK1 kinase activity for the treatment of inflammatory disorder and cancer metastasis” (Cell Death & Disease, 2019).

Tests used:
Experiment in all cases: RBC kinase panel
Assay type in all cases: biochemical
Details in all cases: ATP 10 μM, Data1, Data2
[1] = target: T1, AKT1 (Homo sapiens, UniProt P31749)
T1 construct: purchased Reaction Biology Corporation
Procedure, shortened: (§1)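 1 μM inhibitor; n = 2; ATP 10 μM; broad panel of 369 human kinases.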

[2] = target: T2, AKT2 (Homo sapiens, UniProt P31751)
T2 construct: purchased Reaction Biology Corporation
T2 sequence (P31751 whole entry): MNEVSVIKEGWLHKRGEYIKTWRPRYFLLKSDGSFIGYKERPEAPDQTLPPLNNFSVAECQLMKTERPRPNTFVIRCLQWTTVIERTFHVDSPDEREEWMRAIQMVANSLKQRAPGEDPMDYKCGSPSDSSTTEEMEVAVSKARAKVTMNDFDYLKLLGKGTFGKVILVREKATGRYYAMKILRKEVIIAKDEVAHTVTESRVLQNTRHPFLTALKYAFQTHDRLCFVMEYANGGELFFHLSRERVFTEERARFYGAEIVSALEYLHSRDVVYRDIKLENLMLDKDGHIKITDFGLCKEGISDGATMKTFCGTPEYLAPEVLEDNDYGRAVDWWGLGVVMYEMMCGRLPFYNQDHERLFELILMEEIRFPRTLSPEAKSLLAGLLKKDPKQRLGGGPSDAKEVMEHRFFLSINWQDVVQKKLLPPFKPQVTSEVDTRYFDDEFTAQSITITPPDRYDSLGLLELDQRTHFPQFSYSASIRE
Procedure, shortened: as §1

[3] = target: T3, CAMK1b (Homo sapiens, UniProt Q6P2M8)
T3 construct: purchased Reaction Biology Corporation
Procedure, shortened: as §1

[4] = target: T4, CAMK1d (Homo sapiens, UniProt Q8IU85)
T4 construct: purchased Reaction Biology Corporation
T4 sequence (Q8IU85 whole entry): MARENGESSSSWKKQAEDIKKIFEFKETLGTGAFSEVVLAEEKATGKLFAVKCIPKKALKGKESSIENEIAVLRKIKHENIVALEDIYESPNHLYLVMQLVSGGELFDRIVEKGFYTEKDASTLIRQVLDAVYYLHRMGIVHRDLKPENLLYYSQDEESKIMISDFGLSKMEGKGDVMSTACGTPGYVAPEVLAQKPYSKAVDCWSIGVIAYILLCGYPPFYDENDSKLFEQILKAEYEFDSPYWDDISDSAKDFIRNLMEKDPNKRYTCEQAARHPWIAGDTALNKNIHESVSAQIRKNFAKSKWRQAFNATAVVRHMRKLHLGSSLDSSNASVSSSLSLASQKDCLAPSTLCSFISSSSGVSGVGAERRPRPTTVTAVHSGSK
Procedure, shortened: as §1

[5] = target: T5, CAMK2b (Homo sapiens, UniProt Q13554)
T5 construct: purchased Reaction Biology Corporation
Procedure, shortened: as §1

[6] = target: T6, CDK1/cyclin A (Homo sapiens, UniProt P06493)
T6 construct: purchased Reaction Biology Corporation
Procedure, shortened: as §1

[7] = target: T7, CDK2/cyclin E (Homo sapiens, UniProt P24941)
T7 construct: purchased Reaction Biology Corporation
Procedure, shortened: as §1

[8] = target: T8, EPHA2 (Homo sapiens, UniProt P29317)
T8 construct: purchased Reaction Biology Corporation
Procedure, shortened: as §1

[9] = target: T9, EPHB1 (Homo sapiens, UniProt P54762)
T9 construct: purchased Reaction Biology Corporation
Procedure, shortened: as §1

[10] = target: T10, FGFR3 (Homo sapiens, UniProt P22607)
T10 construct: purchased Reaction Biology Corporation
Procedure, shortened: as §1

[11] = target: T11, GRK3 (Homo sapiens, UniProt P35626)
T11 construct: purchased Reaction Biology Corporation
Procedure, shortened: as §1

[12] = target: T12, HIPK4 (Homo sapiens, UniProt Q8NE63)
T12 construct: purchased Reaction Biology Corporation
Procedure, shortened: as §1

[13] = target: T13, JNK3 (Homo sapiens, UniProt P53779)
T13 construct: purchased Reaction Biology Corporation
Procedure, shortened: as §1

[14] = target: T14, LKB1 (Homo sapiens, UniProt Q15831)
T14 construct: purchased Reaction Biology Corporation
Procedure, shortened: as §1

[15] = target: T15, LRRK2 (Homo sapiens, UniProt Q5S007)
T15 construct: purchased Reaction Biology Corporation
Procedure, shortened: as §1

[16] = target: T16, MINK/MINK1 (Homo sapiens, UniProt Q8N4C8)
T16 construct: purchased Reaction Biology Corporation
Procedure, shortened: as §1

[17] = target: T17, MKK4 (Homo sapiens, UniProt P45985)
T17 construct: purchased Reaction Biology Corporation
T17 sequence (P45985 whole entry): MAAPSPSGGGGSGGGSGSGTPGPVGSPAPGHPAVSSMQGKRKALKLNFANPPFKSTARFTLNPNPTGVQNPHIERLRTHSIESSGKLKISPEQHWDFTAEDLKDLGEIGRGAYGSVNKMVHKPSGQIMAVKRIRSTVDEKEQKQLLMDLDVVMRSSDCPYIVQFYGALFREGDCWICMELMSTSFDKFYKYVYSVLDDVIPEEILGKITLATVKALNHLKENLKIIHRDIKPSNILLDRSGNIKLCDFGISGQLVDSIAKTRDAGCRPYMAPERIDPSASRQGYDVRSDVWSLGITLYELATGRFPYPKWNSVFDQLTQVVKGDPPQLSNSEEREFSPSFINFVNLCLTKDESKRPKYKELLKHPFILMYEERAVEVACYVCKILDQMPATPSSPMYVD
Procedure, shortened: as §1

[18] = target: T18, MLK3/MAP3K11 (Homo sapiens, UniProt Q16584)
T18 construct: purchased Reaction Biology Corporation
T18 sequence (Q16584 whole entry): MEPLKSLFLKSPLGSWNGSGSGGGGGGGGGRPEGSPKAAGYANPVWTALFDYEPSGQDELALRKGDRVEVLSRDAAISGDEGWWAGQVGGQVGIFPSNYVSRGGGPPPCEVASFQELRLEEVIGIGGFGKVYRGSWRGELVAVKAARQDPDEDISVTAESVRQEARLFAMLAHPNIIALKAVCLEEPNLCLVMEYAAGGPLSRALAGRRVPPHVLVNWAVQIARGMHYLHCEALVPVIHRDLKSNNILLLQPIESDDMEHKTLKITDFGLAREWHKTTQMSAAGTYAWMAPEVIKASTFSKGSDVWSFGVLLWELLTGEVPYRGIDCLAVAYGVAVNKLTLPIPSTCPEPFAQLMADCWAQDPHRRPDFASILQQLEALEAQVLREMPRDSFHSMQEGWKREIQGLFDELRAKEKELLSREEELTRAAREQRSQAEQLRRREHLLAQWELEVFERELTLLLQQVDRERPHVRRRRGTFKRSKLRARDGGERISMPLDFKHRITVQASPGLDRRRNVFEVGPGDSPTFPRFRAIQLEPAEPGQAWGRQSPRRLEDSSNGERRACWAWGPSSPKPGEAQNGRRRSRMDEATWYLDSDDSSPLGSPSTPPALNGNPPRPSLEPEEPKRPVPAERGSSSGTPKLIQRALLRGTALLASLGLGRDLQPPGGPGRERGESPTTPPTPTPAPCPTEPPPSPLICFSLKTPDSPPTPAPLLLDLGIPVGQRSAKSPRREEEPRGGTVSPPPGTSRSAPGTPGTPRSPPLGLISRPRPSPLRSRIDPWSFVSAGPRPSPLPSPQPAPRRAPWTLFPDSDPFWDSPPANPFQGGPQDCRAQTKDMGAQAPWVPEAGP
Procedure, shortened: as §1

[19] = target: T19, NEK4 (Homo sapiens, UniProt P51957)
T19 construct: purchased Reaction Biology Corporation
Procedure, shortened: as §1

[20] = target: T20, NEK8 (Homo sapiens, UniProt Q86SG6)
T20 construct: purchased Reaction Biology Corporation
T20 sequence (Q86SG6 whole entry): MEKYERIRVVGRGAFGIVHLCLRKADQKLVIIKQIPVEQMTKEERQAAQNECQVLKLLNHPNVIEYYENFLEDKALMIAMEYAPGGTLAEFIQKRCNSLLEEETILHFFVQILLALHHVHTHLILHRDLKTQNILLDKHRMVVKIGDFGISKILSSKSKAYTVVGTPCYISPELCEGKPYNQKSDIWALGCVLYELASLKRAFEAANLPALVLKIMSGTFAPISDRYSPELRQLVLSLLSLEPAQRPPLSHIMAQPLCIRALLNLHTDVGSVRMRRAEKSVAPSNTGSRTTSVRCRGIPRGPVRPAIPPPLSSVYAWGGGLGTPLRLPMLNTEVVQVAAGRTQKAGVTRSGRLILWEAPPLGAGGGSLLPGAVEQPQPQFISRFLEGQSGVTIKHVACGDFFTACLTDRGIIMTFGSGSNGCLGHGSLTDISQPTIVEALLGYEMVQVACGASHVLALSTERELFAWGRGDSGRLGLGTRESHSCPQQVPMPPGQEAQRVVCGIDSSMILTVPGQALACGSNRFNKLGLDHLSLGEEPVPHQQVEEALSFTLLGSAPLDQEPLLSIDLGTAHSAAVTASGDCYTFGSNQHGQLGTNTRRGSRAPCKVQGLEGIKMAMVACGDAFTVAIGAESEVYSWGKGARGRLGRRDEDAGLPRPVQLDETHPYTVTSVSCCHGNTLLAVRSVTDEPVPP
Procedure, shortened: as §1

[21] = target: T21, P38d/MAPK13 (Homo sapiens, UniProt O15264)
T21 construct: purchased Reaction Biology Corporation
T21 sequence (O15264 whole entry): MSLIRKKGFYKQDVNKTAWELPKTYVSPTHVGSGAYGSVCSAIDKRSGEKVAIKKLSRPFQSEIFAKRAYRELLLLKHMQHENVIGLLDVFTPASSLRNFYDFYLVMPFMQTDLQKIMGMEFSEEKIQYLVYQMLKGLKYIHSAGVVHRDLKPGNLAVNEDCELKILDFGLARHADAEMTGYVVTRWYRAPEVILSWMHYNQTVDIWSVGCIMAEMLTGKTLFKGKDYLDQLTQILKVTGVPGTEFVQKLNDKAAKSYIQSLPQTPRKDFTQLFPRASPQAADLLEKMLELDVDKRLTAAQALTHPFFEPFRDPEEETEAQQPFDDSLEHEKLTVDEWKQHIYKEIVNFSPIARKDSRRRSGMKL
Procedure, shortened: as §1

[22] = target: T22, PAK1 (Homo sapiens, UniProt Q13153)
T22 construct: purchased Reaction Biology Corporation
Procedure, shortened: as §1

[23] = target: T23, PKCmu/PRKD1 (Homo sapiens, UniProt Q15139)
T23 construct: purchased Reaction Biology Corporation
Procedure, shortened: as §1

[24] = target: T24, PKG2/PRKG2 (Homo sapiens, UniProt Q13237)
T24 construct: purchased Reaction Biology Corporation
Procedure, shortened: as §1

[25] = target: T25, RAF1 (Homo sapiens, UniProt P04049)
T25 construct: purchased Reaction Biology Corporation
T25 sequence (P04049 whole entry): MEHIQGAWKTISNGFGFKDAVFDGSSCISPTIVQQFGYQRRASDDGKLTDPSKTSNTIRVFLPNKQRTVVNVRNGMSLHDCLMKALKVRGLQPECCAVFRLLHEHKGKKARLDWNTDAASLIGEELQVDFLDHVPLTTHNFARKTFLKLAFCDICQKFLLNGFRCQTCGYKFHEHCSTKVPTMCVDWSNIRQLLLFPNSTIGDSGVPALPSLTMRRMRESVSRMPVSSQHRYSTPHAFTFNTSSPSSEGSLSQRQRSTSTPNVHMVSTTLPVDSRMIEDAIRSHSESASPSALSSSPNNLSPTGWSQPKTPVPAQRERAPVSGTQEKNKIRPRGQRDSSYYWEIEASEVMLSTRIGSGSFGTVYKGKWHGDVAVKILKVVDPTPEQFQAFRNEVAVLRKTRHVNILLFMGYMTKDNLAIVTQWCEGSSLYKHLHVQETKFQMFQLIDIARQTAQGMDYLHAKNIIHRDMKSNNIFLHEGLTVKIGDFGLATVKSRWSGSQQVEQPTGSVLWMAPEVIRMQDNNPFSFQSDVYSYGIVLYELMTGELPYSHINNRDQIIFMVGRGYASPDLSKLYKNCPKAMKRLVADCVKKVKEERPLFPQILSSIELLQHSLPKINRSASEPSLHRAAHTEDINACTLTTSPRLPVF
Procedure, shortened: as §1

[26] = target: T26, SGK1 (Homo sapiens, UniProt O00141)
T26 construct: purchased Reaction Biology Corporation
Procedure, shortened: as §1

[27] = target: T27, SIK2 (Homo sapiens, UniProt Q9H0K1)
T27 construct: purchased Reaction Biology Corporation
Procedure, shortened: as §1

[28] = target: T28, SNRK (Homo sapiens, UniProt Q9NRH2)
T28 construct: purchased Reaction Biology Corporation
Procedure, shortened: as §1

[29] = target: T29, STK38L/NDR2 (Homo sapiens, UniProt Q9Y2H1)
T29 construct: purchased Reaction Biology Corporation
T29 sequence (Q9Y2H1 whole entry): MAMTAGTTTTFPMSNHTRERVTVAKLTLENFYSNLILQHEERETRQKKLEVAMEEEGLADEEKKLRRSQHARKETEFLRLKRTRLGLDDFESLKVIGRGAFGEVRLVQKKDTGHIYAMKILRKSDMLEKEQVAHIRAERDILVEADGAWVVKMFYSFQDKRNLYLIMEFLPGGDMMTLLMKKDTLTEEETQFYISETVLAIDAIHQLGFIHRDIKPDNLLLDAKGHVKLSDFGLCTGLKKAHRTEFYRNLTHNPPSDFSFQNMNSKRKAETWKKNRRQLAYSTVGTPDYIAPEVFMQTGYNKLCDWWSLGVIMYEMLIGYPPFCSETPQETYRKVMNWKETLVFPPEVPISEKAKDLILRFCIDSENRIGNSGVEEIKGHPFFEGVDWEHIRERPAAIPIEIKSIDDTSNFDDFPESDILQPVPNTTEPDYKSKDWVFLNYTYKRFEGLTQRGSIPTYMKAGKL
Procedure, shortened: as §1

[30] = target: T30, TLK2 (Homo sapiens, UniProt Q86UE8)
T30 construct: purchased Reaction Biology Corporation
Procedure, shortened: as §1

[31] = target: T31, ULK2 (Homo sapiens, UniProt Q8IYT8)
T31 construct: purchased Reaction Biology Corporation
Procedure, shortened: as §1

[32] = target: T32, ZIPK/DAPK3 (Homo sapiens, UniProt O43293)
T32 construct: purchased Reaction Biology Corporation
T32 sequence (O43293 whole entry): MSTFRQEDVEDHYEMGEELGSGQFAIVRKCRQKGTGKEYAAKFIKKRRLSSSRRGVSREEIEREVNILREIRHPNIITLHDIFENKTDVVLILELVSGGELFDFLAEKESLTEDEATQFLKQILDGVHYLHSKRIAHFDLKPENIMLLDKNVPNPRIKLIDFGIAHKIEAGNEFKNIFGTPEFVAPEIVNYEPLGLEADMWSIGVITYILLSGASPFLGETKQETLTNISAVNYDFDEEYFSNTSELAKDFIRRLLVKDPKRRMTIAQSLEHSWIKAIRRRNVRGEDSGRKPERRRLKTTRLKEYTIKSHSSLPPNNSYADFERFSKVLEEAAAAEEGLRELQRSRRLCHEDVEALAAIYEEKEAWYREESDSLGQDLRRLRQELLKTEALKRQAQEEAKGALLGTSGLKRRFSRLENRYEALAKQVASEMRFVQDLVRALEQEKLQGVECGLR
Procedure, shortened: as §1

[33] = target: T33, c-Src (Homo sapiens, UniProt P12931)
T33 construct: purchased Reaction Biology Corporation
Procedure, shortened: as §1

CC(=O)Nc1nc2ccc(-c3cnc(C)c(NC(=O)OC4CCCCC4)c3)cc2s1 [PK68, cyclohexyl (5-(2-acetamidobenzo[d]thiazol-6-yl)-2-methylpyridin-3-yl)carbamate]
Activity% ([1]; 1 μM): 99.12%
activity at 1 µM [1]: 99.2%
Activity% ([2]; 1 μM): 96.89%
activity at 1 µM [2]: 97.5%
Activity% ([3]; 1 μM): 99.49%
activity at 1 µM [3]: 101%
Activity% ([4]; 1 μM): 100.76%
activity at 1 µM [4]: 103%
Activity% ([5]; 1 μM): 99.42%
activity at 1 µM [5]: 102%
Activity% ([6]; 1 μM): 96.92%
activity at 1 µM [6]: 97.2%
Activity% ([7]; 1 μM): 91.99%
activity at 1 µM [7]: 93.5%
Activity% ([8]; 1 μM): 94.92%
activity at 1 µM [8]: 95.2%
Activity% ([9]; 1 μM): 95.01%
activity at 1 µM [9]: 95.5%
Activity% ([10]; 1 μM): 90.12%
activity at 1 µM [10]: 90.5%
Activity% ([11]; 1 μM): 102.09%
activity at 1 µM [11]: 103%
Activity% ([12]; 1 μM): 72.16%
activity at 1 µM [12]: 74.6%
Activity% ([13]; 1 μM): 99.15%
activity at 1 µM [13]: 101%
Activity% ([14]; 1 μM): 102.07%
activity at 1 µM [14]: 103%
Activity% ([15]; 1 μM): 66.88%
activity at 1 µM [15]: 67.7%
Activity% ([16]; 1 μM): 88.92%
activity at 1 µM [16]: 90.2%
Activity% ([17]; 1 μM): 98.91%
activity at 1 µM [17]: 99.1%
Activity% ([18]; 1 μM): 82.77%
activity at 1 µM [18]: 82.9%
Activity% ([19]; 1 μM): 97.97%
activity at 1 µM [19]: 98.9%
Activity% ([20]; 1 μM): 79.27%
activity at 1 µM [20]: 79.9%
Activity% ([21]; 1 μM): 95.45%
activity at 1 µM [21]: 95.8%
Activity% ([22]; 1 μM): 101.03%
activity at 1 µM [22]: 102%
Activity% ([23]; 1 μM): 95.71%
activity at 1 µM [23]: 96.5%
Activity% ([24]; 1 μM): 106.03%
activity at 1 µM [24]: 108%
Activity% ([25]; 1 μM): 75.37%
activity at 1 µM [25]: 76.1%
Activity% ([26]; 1 μM): 93.47%
activity at 1 µM [26]: 93.8%
Activity% ([27]; 1 μM): 94.58%
activity at 1 µM [27]: 95.5%
Activity% ([28]; 1 μM): 90.23%
activity at 1 µM [28]: 94.9%
Activity% ([29]; 1 μM): 100.42%
activity at 1 µM [29]: 101%
Activity% ([30]; 1 μM): 96.86%
activity at 1 µM [30]: 98.1%
Activity% ([31]; 1 μM): 101.80%
activity at 1 µM [31]: 102%
Activity% ([32]; 1 μM): 98.55%
activity at 1 µM [32]: 100%
Activity% ([33]; 1 μM): 95.17%
activity at 1 µM [33]: 96.3%
